According to PubChem BioAssay AID1259420 (Broad Institute, 2018):
“And” between values parts separate entries of the source, which are not always exact repeats. Equal entries are not always repeated. Inconclusive results are not listed. The source made the active and inactive calls. The rule behind the calls is not given here.

Tested on: Toxoplasma gondii growth in host cells, no IFN-gamma
Assay: compound activity on host-cell Toxoplasma growth – dose response (AID 1259420);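 note: host cells were HeLa; final incubation lasted 72 hours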

| Structure (SMILES) | AC50 |
| --- | --- |
| CC(C)CC#Cc1ccc([C@@H]2[C@@H](CO)N3C(=O)CN(C(=O)Nc4cc(F)ccc4F)C[C@@H]23)cc1 | 17.1 µM |
| CC(C)N1CCN(CC#N)C2(CCN(C(=O)c3ccc[nH]3)C2)C1=O (stereo not given) | 37.9 µM |
| COc1ccccc1-c1nc(CN2CCc3c(sc4c3CCCC4)C2c2ccccc2)c(C)o1 (stereo not given) | 22.4 µM |
| CO[C@H]1CCN(Cc2ccoc2)[C@H]2CN(Cc3ccncc3)C[C@@H]12 | > 39 µM (inactive) |
| O=C(NC1CCCC1)N1CCCCN2[C@H](CO)[C@H](c3ccc(-c4cccnc4)cc3)[C@H]2C1 | 18.2 µM |
| COc1cccc(S(=O)(=O)N2CC[C@@H]3[C@H](CO)Nc4ccc(C5=CCCCC5)cc4[C@@H]32)c1 | 14.1 µM |
| CN1[C@@H]2c3ccc(/C=C/c4ccccc4)c(=O)n3C[C@H]1[C@H](CO)[C@H]2C(=O)NC1Cc2ccccc2C1 | > 39 µM (inactive) |
| N#C[C@@H]1[C@@H](c2ccc(C3=CCCCC3)cc2)[C@@H](CO)N1S(=O)(=O)c1ccccc1 | > 39 µM (inactive) |
| COc1cccc(-c2nc3c(s2)CN(S(=O)(=O)c2ccccc2C)CC3)c1 | 34.7 µM |
| C/C=C/c1ccc(C2[C@H]3CNC[C@@H]2N3C(=O)NC2CCCCC2)cc1 (stereo not given in full) | 13.3 µM |
| CCc1c2c(nc3ccc(OC(=O)N4CCC(N5CCCCC5)CC4)cc13)-c1cc3c(c(=O)n1C2)COC(=O)[C@]3(O)CC | 24.7 µM |
| O=C(c1cccc(F)c1)N1CCCCN2[C@H](CO)[C@H](c3ccc(C#CC4(O)CCCC4)cc3)[C@H]2C1 | 32.1 µM |
| Cc1ccccc1S(=O)(=O)N1CCCCN2[C@H](CO)[C@H](c3ccc(C#CCN(C)C)cc3)[C@H]2C1 | 33.7 µM |
| CN1C(=O)c2cc(NC(=O)c3cccc(F)c3)ccc2OC[C@@H]2O[C@H](CC(=O)NCC3CCCCC3)CC[C@@H]21 | > 39 µM (inactive) |
| C[C@H](CO)N1C[C@H](C)[C@H](CN(C)C(=O)c2cc(Cl)cc(Cl)c2)OCc2ccccc2-c2c(n(C)c3ccccc23)C1=O | 15.3 µM |
| Cc1ccc(S(=O)(=O)N2CC[C@@H]3[C@H]2c2cc(-c4ccccc4F)ccc2N(C)[C@H]3CO)cc1 | 20.4 µM |
| Cc1cccc(-c2ccc(C3[C@@H]4CN(Cc5cccc(F)c5)C[C@H]3N4)cc2)c1 (stereo not given in full) | 19.4 µM |
| NCCCCCCCCCCNS(=O)(=O)c1cccc2c(Cl)cccc12 | 15.9 µM |
| COc1cccc(-c2ccc3c(c2)[C@@H]2[C@@H](CCN2C(=O)c2ccccc2F)[C@H](CO)N3C)c1 | 8.81 µM and 10.2 µM |
| Cc1ccccc1CN1C[C@@H]2c3nc(N4CCCC(C)C4)ncc3CS(=O)(=O)[C@H]2C1 (stereo not given in full) | 28.2 µM |

| Structure (SMILES) | AC50 |
| --- | --- |
| N#Cc1ccc(-c2ccc([C@H]3[C@@H](CO)N4C(=O)CNC[C@@H]34)cc2)cc1 | > 39 µM (inactive) |
| CN(C[C@H]1N[C@@H](CO)[C@@H]1c1ccc(C2=CCCC2)cc1)C(=O)c1cccc(F)c1 | 3.41 µM and 4.45 µM |
| C=C(C)[C@@H]1CC[C@]2(C(=O)O)CC[C@]3(C)[C@H](CC[C@@H]4[C@@]5(C)CC[C@H](O)C(C)(C)[C@@H]5CC[C@]43C)[C@@H]12 | 26.9 µM |
| CC(C)CC#Cc1ccc([C@@H]2[C@@H](CO)N3CCCCN(C(=O)Nc4ccccc4)C[C@@H]23)cc1 | 23.7 µM |
| O=C(Cc1ccccc1)N1CC[C@H]2[C@H](CO)Nc3ccc(C4=CCCCC4)cc3[C@H]21 | 13.9 µM |
| CCc1ccc(S(=O)(=O)N2CCC3(CCCN(Cc4c(C)noc4C)C3)C2)cc1 (stereo not given) | 35.4 µM |
| COc1ccc(-c2nc3c(s2)CN(S(=O)(=O)c2ccccc2C)CC3)cc1 | 8.96 µM |
| O=C(C[C@@H]1CC[C@@H]2[C@H](COC[C@@H](O)CN2S(=O)(=O)c2ccccc2)O1)NCC1CCCCC1 | 33.4 µM |
| Cc1nc(N2CCOCC2)nc2c1CCN(C(=O)C1CC1)CC2 | 21.7 µM |
| C[C@@H]1CN([C@@H](C)CO)C(=O)Cc2cc(NC(=O)C3CCCCC3)ccc2O[C@@H]1CN(C)Cc1ccc(Cl)c(Cl)c1 | 13.9 µM |
| Cc1sc2ncnc(Oc3ccc(OCc4ccccc4)cc3)c2c1C | 7.16 µM and 9.76 µM |
| N#Cc1ccc(-c2ccc3c(c2)[C@H]2[C@H](CCN2C(=O)C2CCCCC2)[C@H](CO)N3)cc1 | 16.9 µM |
| CC(C)(C)c1ccc(S(=O)(=O)N2CCC[C@@H]2C(=O)NCCc2csc(-c3ccccc3)n2)cc1 | > 39 µM (inactive) |
| Cc1ccccc1S(=O)(=O)N1C[C@@H]2N[C@H](C1)C2c1ccc(-c2cccc(C#N)c2)cc1 (stereo not given in full) | 13.3 µM and 14.8 µM and 31.3 µM |
| CCCNC(=O)N1CC(=O)N2[C@@H](CO)[C@@H](c3ccc(C#Cc4cccc(OC)c4)cc3)[C@@H]2C1 | 31.2 µM |
| N#Cc1cccc(-c2ccc(C3[C@@H]4CN(C(=O)c5ccc6c(c5)OCO6)C[C@H]3N4)cc2)c1 (stereo not given in full) | > 39 µM (inactive) |
| CN(C)C(=O)c1cccc(-c2ccc3c(c2)[C@H]2[C@H](CCN2C(=O)Cc2ccccc2)[C@H](CO)N3)c1 | 16.6 µM |
| COCC(=O)N1CC(=O)N2[C@H](CO)[C@@H](c3ccc(C#CC4CC4)cc3)[C@@H]2C1 | > 39 µM (inactive) |
| COc1ccc(-c2ccc3c(c2)[C@H]2[C@H](CCN2C(=O)c2cccc(F)c2)[C@@H](CO)N3)cc1 | 10.6 µM |
| COc1ccc(-c2cnc3n2CCNC32CCN(C(=O)N3CCOCC3)CC2)cc1 | > 39 µM (inactive) |

| Structure (SMILES) | AC50 |
| --- | --- |
| O=C(C[C@H]1C[C@@H]2CN(Cc3ccccc3)C[C@H]2O1)N1CCCCO1 | > 39 µM (inactive) |
| COc1cc(CN2C[C@@H]3N[C@H](C2)C3c2ccc(-c3ccc(C#N)cc3)cc2)cc(OC)c1 (stereo not given in full) | 7.99 µM |
| CCc1cnc(N2[C@H](C#N)[C@@H](c3ccc(-c4cccc(F)c4)cc3)[C@@H]2CO)s1 | > 39 µM (inactive) |
| O=C(Nc1ccc(Cl)cc1)N1[C@@H]2CNC[C@H]1C2c1ccc(-c2ccccc2)cc1 (stereo not given in full) | 6.4 µM |
| Cc1cccc(-c2ccc([C@H]3[C@@H](CO)N4CCCCN(S(=O)(=O)c5ccccc5F)C[C@H]34)cc2)c1 | 16.4 µM and 19.5 µM |
| O=C(Nc1cccc(F)c1)N1CCCCN2[C@H](CO)[C@H](c3ccc(C#Cc4cccnc4)cc3)[C@H]2C1 | 16.4 µM |
| O=C(c1cnccn1)N1CC(=O)N2[C@H](CO)[C@@H](c3ccc(-c4cccc(F)c4)cc3)[C@@H]2C1 | 20 µM |
| N#C[C@@H]1[C@H](c2ccc(-c3cccc(F)c3)cc2)[C@H](CO)N1C(=O)NC1CCCC1 | 36 µM and 24 µM |
| C/C=C/c1ccc(C2[C@@H]3CN(S(=O)(=O)c4ccccc4F)C[C@H]2N3)cc1 (stereo not given in full) | 20.7 µM |
| CC(C)C#Cc1ccc([C@@H]2[C@H]3CN(C(=O)NC4CCCC4)CC(=O)N3[C@H]2CO)cc1 | > 39 µM (inactive) |
| COc1ccccc1C(=O)Nc1ccc(-c2nc(-c3ccc(C)cc3C)co2)cc1 | 21 µM |
| c1csc(-c2cc(NC3CCNCC3)nc3[nH]ccc23)n1 | 37 µM |
| COc1ccc(NC(=O)N2CC[C@@H]3[C@H]2c2cc(C4=CCCCC4)ccc2N(C)[C@H]3CO)cc1 | 17.8 µM |
| Cc1cc(C)n(C)c(=O)c1C(=O)N1CCOC(C(F)(F)F)C1 (stereo not given) | > 39 µM (inactive) |
| Cc1ccc(S(=O)(=O)Nc2ccc3c(c2)C(=O)N([C@@H](C)CO)C[C@@H](C)[C@H](CN(C)Cc2ccc(C(F)(F)F)cc2)O3)cc1 | > 20 µM (inactive) |
| CC(C)(Cc1ccc2ccccc2c1)NC[C@@H](O)COc1cccc(Cl)c1C#N | 12.3 µM |
| O=C(Nc1ccc2c(c1)OCO2)N1C[C@@H]2N[C@H](C1)C2c1ccc(C=Cc2ccccc2)cc1 (stereo not given in full) | 11.6 µM and 8.75 µM |
| CC(=O)N(C)C1(c2ccccc2)CCN(CCC[C@]2(c3ccc(Cl)c(Cl)c3)CCCN(C(=O)c3ccccc3)C2)CC1 | 16.7 µM |
| O=C1c2c(O)ccc(O)c2C(=O)c2c(NCCNCCO)ccc(NCCNCCO)c21 | 0.209 µM |
| C[C@H](CO)N1C[C@H](C)[C@H](CN(C)C(=O)Nc2ccc(C(F)(F)F)cc2)Oc2c(NC(=O)c3ccc(-c4nccs4)cc3)cccc2C1=O | 9.48 µM |
